Patent publication US20060110385A1, “Means and methods for diagnosing and treating affective disorders” (Affectis Pharmaceuticals AG, priority 2003, published 2006)

Assays:
P2X7R [1] = target: T1, P2X7R (Rattus norvegicus, UniProt Q64663); details: concentrations of 10 to 300 μM; cited from earlier work
T1 sequence (Q64663 1-595): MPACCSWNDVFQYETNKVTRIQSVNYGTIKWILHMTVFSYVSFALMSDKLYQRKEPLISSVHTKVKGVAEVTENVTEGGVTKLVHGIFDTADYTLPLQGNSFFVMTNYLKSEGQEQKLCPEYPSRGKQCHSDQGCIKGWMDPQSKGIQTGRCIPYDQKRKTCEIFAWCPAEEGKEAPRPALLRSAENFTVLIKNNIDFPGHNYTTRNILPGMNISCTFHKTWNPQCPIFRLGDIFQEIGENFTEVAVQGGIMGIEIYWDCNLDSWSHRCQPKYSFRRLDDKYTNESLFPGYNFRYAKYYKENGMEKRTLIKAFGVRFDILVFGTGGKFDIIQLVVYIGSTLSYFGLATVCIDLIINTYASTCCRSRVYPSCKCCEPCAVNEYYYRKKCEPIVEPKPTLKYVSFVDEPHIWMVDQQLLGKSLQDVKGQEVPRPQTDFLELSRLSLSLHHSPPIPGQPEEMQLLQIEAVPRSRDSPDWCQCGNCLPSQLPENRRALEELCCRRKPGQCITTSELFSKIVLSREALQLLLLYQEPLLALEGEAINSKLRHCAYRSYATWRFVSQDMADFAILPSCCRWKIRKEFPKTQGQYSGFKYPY

P2X7R [2] = details: cited from earlier work
P2X7R [3] = target: T2, P2X7R (Homo sapiens, UniProt Q99572); details: dose response curve, Y-axis ion current; cited from earlier work
T2 sequence (Q99572 1-595): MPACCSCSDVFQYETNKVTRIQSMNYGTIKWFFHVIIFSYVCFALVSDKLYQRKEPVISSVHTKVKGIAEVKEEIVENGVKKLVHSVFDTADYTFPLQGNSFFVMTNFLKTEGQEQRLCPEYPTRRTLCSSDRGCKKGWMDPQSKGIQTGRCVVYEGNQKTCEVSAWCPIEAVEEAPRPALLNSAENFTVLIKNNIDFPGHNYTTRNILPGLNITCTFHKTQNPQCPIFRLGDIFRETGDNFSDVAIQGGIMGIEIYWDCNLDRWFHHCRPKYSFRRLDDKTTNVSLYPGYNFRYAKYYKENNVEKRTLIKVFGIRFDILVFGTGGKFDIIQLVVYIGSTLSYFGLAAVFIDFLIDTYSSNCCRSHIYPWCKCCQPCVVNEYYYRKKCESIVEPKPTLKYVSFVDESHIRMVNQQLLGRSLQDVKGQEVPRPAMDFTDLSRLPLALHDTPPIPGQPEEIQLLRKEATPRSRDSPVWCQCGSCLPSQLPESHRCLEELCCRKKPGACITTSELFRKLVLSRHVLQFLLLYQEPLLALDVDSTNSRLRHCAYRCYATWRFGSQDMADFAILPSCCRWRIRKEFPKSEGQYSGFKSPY

DBA/201a mice = assay: Porsolt's forced swim test after intrahippocampal P2X7R antagonists; format: in vivo, mouse; details: 100 nM KN-62 or 10 μM oATP, 1 μl each side, dentate gyrus, 24 hours after injection
Text: In the present example, the P2X7R antagonists were directly injected into the dentate gyrus region of the hippocampus. Briefly, three months old male mice were bilaterally implanted with guide cannulae (23 gauge, length 8 mm) by means of a stereotactic instrument (David Kopf Instruments). The coordinates, in relation to bregma, were −1.5 mm posterior, ±1.0 mm lateral, and −0.8 mm ventral. Mice were allowed to recover for 10 to 13 days after surgery. Following this recovery period, mice were injected with 1 μl vehicle solution (0.01% DMSO, Sigma), or 100 nM KN-62 (Sigma, prepared in 0.01% DMSO), or 10 μM oATP (Sigma, prepared in PBS) in each side of the brain over a period of 60 seconds. All injections were performed using a 9 mm-31 gauge needle inserted into the guide cannulae and connected via tubing to a 10 μl Hamilton syringe.
The behaviour of individual mice was assessed using the Porsolt's forced swim test 24 hours after injection of vehicle solution, KN-62, or oATP. A pre-exposure of 5 minutes to the test was performed 15-17 minutes after administration of vehicle, KN-62, or oATP. A description of the Porsolt's forced swim test is given in example 9. […] Observed results were verified statistically using one-way MANOVA test.

mice [4] = assay: Porsolt's forced swim test after long-term paroxetine; format: in vivo, mouse; details: paroxetine 10 mg/kg twice per day by gavage, 28 days, male mice
Method: Further validation of role of P2X7R in affective disorders was performed by examining its expression pattern in response to stress and treatment with antidepressant drugs. […] In parallel, a control group of mice was given vehicle solution (i.e. without paroxetine) using the same treatment regiment while a second control group of mice was left undisturbed and stress-free (i.e. untreated) during the same period of the experiments. At the end of the long-term treatment, part of the mice of each experimental group were tested in the dark/light box (test of anxiety behaviour) and in the Porsolt's forced swim test (test of depressive-like behaviour) to confirm the effectiveness of the treatment (FIG. 5). […] The other part of the experimental groups (i.e. mice without test experience) were decapitated, brains rapidly removed and frozen at −80° C. until usage.

P2X7R [5] = target: T2, P2X7R; assay: Calcium entry (Fluo-4 AM) in HT-22 cells overexpressing human P2X7R; format: cell-based; parameters: expressed in transfected cells; details: 20 μM BzATP or 50 μM tenidap
Text: Yet another method for identifying P2X7R agonists was devised by generating a immortalised mouse cell line that overexpresses the human P2X7R gene under the control of the human cytomegalovirus (CMV) early promoter/enhancer region. The human P2X7R cDNA was inserted into the pcDNA3.1 vector (Invitrogen) and transfected into the mouse hippocampal cell line HT-22 using Lipofectamine (Invitrogen) according to the manufacturer's specifications. One day after transfection, culture medium containing 500 μg/ml G418 was added to the cells. Resistant clones were separately isolated and cultured 14 days after applying the selection medium.
The agonistic activity of a compound was evaluated by measuring calcium entry in the cells that overexpress the human P2X7R. Cells were cultured in 96 well plates and incubated at 37° C. with 5% CO2 DMEM with 10% foetal calf serum (Gibco) until they reached confluence. Cells were then loaded for one hour with 10 μM of Fluo-4 AM (Molecular Probes). Fluo-4 AM is a fluorescent dye that binds to intracellular calcium. […] Agonist activity was detected by measuring an increase in calcium influx which results in increased binding to Fluo-4 AM and increased fluorescence. Changes in fluorescence signal are measured using a Fluostar Optima plate reader (BMG biotech). […] Thus, both compound stimulated the activity of P2X7R which results in an influx of ions into the cells.

P2X7R [6] = assay: P2X7R protein expression by immunohistochemistry after siRNA injection; format: in vivo, mouse
Text: At the end of the experiment, the mice were sacrificed and the brains were examined to confirm the location and efficiency of the siRNA injections. For this purpose the brains were cut into sections and the slides were stained by immunohistochemistry using the above mentioned protocols. Brains from mice injected with the specific double stranded siRNA, with control double stranded RNA and with vehicle were examined in parallel. Under these conditions, the specific siRNA directed against P2X7R injected near the dentate gyrus induced on average an 80% inhibition of P2X7R protein expression as compared to the samples from mice injected with vehicle or with control double stranded RNA. […] This inhibition produced behavioural changes indicating a causative role for P2X7R in affective disorders.

mice [7] = assay: Porsolt's forced swim test after intrahippocampal siRNA; format: in vivo, mouse; details: 0.1 nmol/μl, 1 μl per side, dentate gyrus, 24 hours and 48 hours after infusion
Text: According to the observed expression pattern of P2X7R in the hippocampus (FIGS. 9, 10, and 11) and the known involvement of the hippocampus in depression, the dentate gyrus (hippocampus) was selected as target region for siRNA application. Male, naive mice were bilaterally implanted with a guide cannulae (23 gauge, length 8 mm) by means of a stereotactic instrument. The coordinates, in relation to bregma, were −2.0 mm posterior, ±1.0 mm lateral, and −1.0 mm ventral. Following a recovery period of 5 days, the mice were divided into three experimental groups: vehicle (veh), control double stranded RNA (control), and P2X7R specific double stranded siRNA (siRNA). Sequences used for P2X7R siRNA are 5′-[…]-3′ and 5′-[…]-3′. Both sequences and were annealed and injected together as a double stranded RNA. On day 6 after surgery, mice were slightly anaesthetized with Isofluran and injections of siRNA were carried out. […]
The effects of P2X7R inhibition on depressive-like behaviour was assessed 24 hours and 48 hours after infusion of siRNA, control or vehicle according to the standard test paradigm, the Porsolt's forced swim test (Porsolt et al., Arch. Int. Pharmacodym. 229 (1977), 327-336; Porsolt, Rev. Neurosci. 11 (2000), 53-58). […] Compared to vehicle application, no influence of control double stranded RNA (5′-[…]-3′) on floating behaviour (passive stress coping) was detected. […]

## CC(C)NCC(O)COc1cccc2ccccc12 (racemic) [DL-propanolol]
P2X7R [1]
  opening of the cation channel activity of P2X7R: without affecting the opening of the cation channel activity of P2X7R
  pore-forming activity of P2X7R: inhibit the pore-forming activity of P2X7R

## Nc1ncnc2c1ncn2[C@@H]1O[C@H](COP(=O)(O)OP(=O)(O)OP(=O)(O)O)[C@@H](O)[C@H]1O [ATP]
P2X7R [2]
  levels of ATP required to achieve activation: > 1 mM
P2X7R [3]
  EC50: 300 µM

## CC(C)NC[C@@H](O)COc1cccc2ccccc12 [D-propanolol]
P2X7R [1]
  opening of the cation channel activity of P2X7R: without affecting the opening of the cation channel activity of P2X7R
  pore-forming activity of P2X7R: inhibit the pore-forming activity of P2X7R

## CN([C@@H](Cc1ccc(OS(=O)(=O)c2cccc3cnccc23)cc1)C(=O)N1CCN(c2ccccc2)CC1)S(=O)(=O)c1cccc2cnccc12 [KN-62, 1-(N,O-bis[5-isoquinolinesulphonyl]-N-methyl-L-tyrosyl)-4-phenylpiperazine]
DBA/201a mice
  active escape attempts (time, frequency, latency of struggling): no changes
  passive behaviour (time, frequency, latency of floating): no changes

## CC(CCc1ccccc1)NCC(O)c1ccc(O)c(C(N)=O)c1 (stereo not shown) [labetolol]
P2X7R [1]
  opening of the cation channel activity of P2X7R: without affecting the opening of the cation channel activity of P2X7R
  pore-forming activity of P2X7R: inhibit the pore-forming activity of P2X7R

## Fc1ccc([C@@H]2CCNC[C@H]2COc2ccc3c(c2)OCO3)cc1 [paroxetine]
Mice [4]
  passive stress coping behaviour (floating) in the forced swim test: decreased

## NC(=O)N1C(=O)/C(=C(\O)c2cccs2)c2cc(Cl)ccc21 [tenidap, 5-chloro-2,3-dihydro-2-oxo-3-(2-thienylcarbonyl)-indole-1-carboxamide]
P2X7R [5]
  fluorescence intensity (calcium influx, Fluo-4 AM): rapid increase in fluorescence intensity

## P2X7R specific siRNA: double stranded siRNA, 5′-GUGGGUCUUGCACAUGAUCTT-3′ annealed with 5′-GAUCAUGUGCAAGACCCACTT-3′ (chemistry not given here)
P2X7R [6]; injected near the dentate gyrus, compared to vehicle or control double stranded RNA
  inhibition of P2X7R protein expression: 80%
P2X7R [6]; intrahippocampal injection
  local inflammation or infiltration at the hippocampus: did not produce any sign of local inflammation or infiltration
Mice [7]
  passive (floating) behaviour in the forced swim test: significant increase in passive behaviour
Mice [7]; listed as siRNA targeting P2X7R
  passive (floating) behaviour in the forced swim test: increased
